Activity calls are given as the source filed them. The calls are words filed in the database; no cut-off is given here.

The test system of series [1] is MIN6. The series can be described thus: Cytotoxicity against mouse MIN6 cells assessed as reduction in cell viability up to 200 uM incubated for 24 hrs by MTT assay. It counts as cell-based. The following applies: min6, 24 h.
Series [2] is described as follows: Cytotoxicity against mouse MIN6 cells assessed as cell viability at 400 uM incubated for 24 hrs by MTT assay. It counts as cell-based. The note with it: read-out: Activity.
For series [3], the system named is MIN6. The series can be described thus: Antidiabetic activity in mouse MIN6 cells after 35 passages assessed as increase in insulin secretion at 100 uM in presence of 25 mM glucose by ELISA relative to control. It counts as functional.
Series [4] has as its system MIN6. The series can be described thus: Antidiabetic activity in mouse MIN6 cells after 83 passages assessed as increase in insulin secretion at 100 uM in presence of 25 mM glucose by ELISA relative to control. In kind it is functional.
The subject of series [5] is MIN6. The series can be described thus: Antidiabetic activity in mouse MIN6 cells after 35 passages assessed as increase in insulin secretion incubated for 48 hrs presence of 1 mM glucose by ELISA. It counts as functional, cell-based.
The test system of series [6] is MIN6. The series can be described thus: Antidiabetic activity in mouse MIN6 cells after 35 passages assessed as increase in insulin secretion incubated for 48 hrs presence of 25 mM glucose by ELISA. It counts as functional, cell-based.
Series [7] has as its system MIN6. The series can be described thus: Antidiabetic activity in mouse MIN6 cells after 83 passages assessed as increase in insulin secretion incubated for 48 hrs presence of 1 mM glucose by ELISA. It counts as functional, cell-based.
The subject of series [8] is MIN6. The series can be described thus: Antidiabetic activity in mouse MIN6 cells after 83 passages assessed as increase in insulin secretion incubated for 48 hrs presence of 25 mM glucose by ELISA. In kind it is functional, cell-based.
The target of series [9] is T1, Aldo-keto reductase family 1 member B1 (Homo sapiens, UniProt P15121). The series can be described thus: Inhibition of human recombinant ALR2 expressed in Escherichia coli using DL-glyceraldehyde as substrate and NADPH preincubated for 5 mins followed by substrate addition and measured after 30 mins at 2 mins interval by spectrophotometry relative to control.
Series [10] deals with Aldo-keto reductase family 1 member A1 (Rattus norvegicus, UniProt P51635). The series can be described thus: Inhibition of rat kidney ALR1 using DL-glyceraldehyde as substrate and NADPH preincubated for 5 mins followed by substrate addition and measured for 30 mins at 2 mins interval by spectrophotometry relative to control.
A short description of series [11]: Selectivity ratio of IC50 for rat kidney ALR1 IC50 to IC50 for human recombinant ALR2.
Series [12] deals with Aldo-keto reductase family 1 member B1 (Rattus norvegicus) (UniProt P07943). The series can be described thus: (§1) Inhibition of ALR2 in rat erythrocytes assessed as reduction in sorbitol accumulation incubated for 3 hrs in presence of 28 mM glucose by gas chromatographic analysis relative to control. In kind it is cell-based.
Series [13] concerns the target T2, Aldo-keto reductase family 1 member B1 (Rattus norvegicus, UniProt P07943). Described as §1. In kind it is cell-based.
The target of series [14] is Aldo-keto reductase family 1 member B1 (Rattus norvegicus) (UniProt P07943). The series can be described thus: (§2) Inhibition of ALR2 in rat sciatic nerve assessed as reduction in sorbitol accumulation incubated for 3 hrs in presence of 28 mM glucose by gas chromatographic analysis.
In series [15] the target is T2, Aldo-keto reductase family 1 member B1. The description is as §2.
For series [16], the target named is Aldo-keto reductase family 1 member B1 (Rattus norvegicus) (UniProt P07943). The series can be described thus: (§3) Inhibition of ALR2 in rat lens assessed as reduction in sorbitol accumulation incubated for 3 hrs in presence of 28 mM glucose by gas chromatographic analysis relative to control.
Series [17] addresses T2, Aldo-keto reductase family 1 member B1. The series is described as §3.
The nature of series [18]: Antioxidant activity assessed as DPPH radical scavenging activity at 10 uM incubated for 30 mins under dark condition by spectrophotometry. In kind it is functional.
Series [19] in a line: Antioxidant activity assessed as DPPH radical scavenging activity at 50 uM incubated for 30 mins under dark condition by spectrophotometry. It counts as functional.
Series [20] can be described thus: Antioxidant activity assessed as DPPH radical scavenging activity at 100 uM incubated for 30 mins under dark condition by spectrophotometry. In kind it is functional.
The nature of series [21]: Cytotoxicity against HEK293 cells assessed as reduction in cell viability at 25 uM incubated for 48 hrs by MTT assay relative to control. It counts as cell-based. The note with it: human, read-out: INH.
Series [22] can be described thus: Cytotoxicity against HEK293 cells assessed as reduction in cell viability at 50 uM incubated for 48 hrs by MTT assay relative to control. In kind it is cell-based. The note with it: human, read-out: INH.
Series [23] is described as follows: Cytotoxicity against HEK293 cells assessed as reduction in cell viability at 100 uM incubated for 48 hrs by MTT assay relative to control. In kind it is cell-based. The note with it: human, read-out: INH.
The nature of series [24]: Cytotoxicity against HEK293 cells assessed as reduction in cell viability at 200 uM incubated for 48 hrs by MTT assay relative to control. In kind it is cell-based. The following applies: human, read-out: INH.
For another series, the system named is Mus musculus. The series can be described thus: Antihyperglycemic activity in alloxanized BALB/c mouse assessed as reduction in blood glucose level at 150 mg/kg, po measured after 8 hrs relative to control. It counts as functional.
Series [25] deals with MIN6. The series can be described thus: Effect on cell morphology in mouse MIN6 cells assessed as cell viability up to 400 uM incubated for 24 hrs. In kind it is cell-based. The following applies: min6, 24 h.
The test system of series [26] is CC(C)c1ccc(S(=O)(=O)N2C(=O)NC(=O)C23CCCc2ccccc23)cc1. The series can be described thus: Uncompetitive Inhibition of ALR2 (unknown origin) assessed as substrate Km using varying level of D,L-glyceraldehyde as substrate at 10 uM in presence of NADPH by Lineweaver-Burk plot analysis (reference value: 0.585 mM). The note with it: Homo sapiens.
For series [27], the target named is T1, Aldo-keto reductase family 1 member B1. The series can be described thus: Uncompetitive Inhibition of ALR2 (unknown origin) using varying level of D,L-glyceraldehyde as substrate at 10 uM in presence of NADPH by Lineweaver-Burk plot analysis.
Series [28] has the same target. The series can be described thus: Uncompetitive Inhibition of ALR2 (unknown origin) using fixed level of D,L-glyceraldehyde as substrate at 10 uM in presence of varying level of NADPH by Lineweaver-Burk plot analysis.
Series [29] has the same target. The series can be described thus: Non-competitive Inhibition of ALR2 (unknown origin) using fixed level of D,L-glyceraldehyde as substrate at 20 uM in presence of varying level of NADPH by Lineweaver-Burk plot analysis.
For series [30] the target is unchanged. The series can be described thus: Non-competitive Inhibition of ALR2 (unknown origin) using varying level of D,L-glyceraldehyde as substrate at 20 uM in presence of NADPH by Lineweaver-Burk plot analysis.

Aldo-keto reductase family 1 member A1, sequence (P51635 whole entry, looked up): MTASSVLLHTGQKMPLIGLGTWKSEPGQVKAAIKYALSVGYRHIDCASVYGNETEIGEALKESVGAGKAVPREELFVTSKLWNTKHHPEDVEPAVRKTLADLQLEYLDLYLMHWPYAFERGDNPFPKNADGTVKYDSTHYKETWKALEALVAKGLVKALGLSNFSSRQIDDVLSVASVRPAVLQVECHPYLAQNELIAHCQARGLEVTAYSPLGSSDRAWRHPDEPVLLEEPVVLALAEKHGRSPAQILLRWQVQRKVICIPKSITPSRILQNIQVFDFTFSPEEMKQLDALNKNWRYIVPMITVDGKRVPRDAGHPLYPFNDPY

For the molecule `CC(=O)c1ccc(S(=O)(=O)N2C(=O)NC(=O)C23CCCc2ccccc23)cc1` (stereo not given), the Activity result is listed as “Non-Toxic” with MIN6 [1], 370% in the series with MIN6 [3], 228% in the series with MIN6 [4] and “Non-Toxic” with MIN6 [25]. In [2], the viability at 24 h, 400 µM is 81%. Also, the result in the series on MIN6 [5], in the series with MIN6 [6], in the series with MIN6 [7] and with MIN6 [8] was Active. Also, the IC50 in [9] came to 0.64 µM; in series [10] it was 32.2 µM; in series [13], 0.6 µM; in [15], 0.67 µM; in [17], 0.65 µM. Also, the Ratio IC50 in series [11] came out at 53.7. Also, the inhibition entry was “Dose-dependent effect” in [12]; “Dose-dependent effect” in [14]; “Dose-dependent effect” in series [16]; 25.2% in [18]; 39.7% in [19]; 75.5% in series [20]. Moreover, in series [21], the cytotoxicity at 48 h, 25 µM was 16.3%. Also, the cytotoxicity at 48 h, 50 µM in series [22] was found to be 23.2%. In series [23], the cytotoxicity at 48 h, 100 µM came to 26.6%. In addition, the cytotoxicity at 48 h, 200 µM in series [24] came out at 34.6%. Moreover, the inhibition in vivo at 150 mg/kg with Mus musculus is 52.2%.

`CCCCNC(=O)NS(=O)(=O)c1ccc(C)cc1` [TOLBUTAMIDE]: the Activity in the series with MIN6 [3] was determined as 340%; in the series on MIN6 [4], 110%. Also, the outcome in the series on MIN6 [5], with MIN6 [6], in the series on MIN6 [7] and in the series on MIN6 [8] was Active. Also, the inhibition in vivo at 150 mg/kg with Mus musculus amounted to 47.2%.

Regarding “Aldo-keto reductase family 1 member B1 (Homo sapiens) (from UniProt P15121)”, in series [26], the Km came out at 537 µM.

Regarding `COc1ccc(S(=O)(=O)N2C(=O)NC(=O)C23CCCc2ccccc23)cc1` (stereo not given), the Activity entry in the series on MIN6 [1] was “Non-Toxic”; with MIN6 [3], 170%; in the series on MIN6 [4] it was 122%; in the series on MIN6 [25], “Non-Toxic”. Besides, the viability at 24 h, 400 µM in [2] was 81%. For the same molecule, the IC50 in series [9] is 5.66 µM; in series [10], 10.6 µM; in series [13], 7.15 µM; in series [15], 6.37 µM; in series [17], 7.44 µM. Besides, the Ratio IC50 in [11] turned out to be 1.88. Moreover, the inhibition result in series [12] is “Dose-dependent effect”; in [14], “Dose-dependent effect”; in series [16], “Dose-dependent effect”; in series [18], 41.4%; in [19] it was 53.3%; in [20] it was 66.8%. In [21], the cytotoxicity at 48 h, 25 µM was found to be 14%. Moreover, the cytotoxicity at 48 h, 50 µM in series [22] was 21.1%. The cytotoxicity at 48 h, 100 µM in series [23] is 25.2%. Also, in series [24], the cytotoxicity at 48 h, 200 µM stood at 27.5%.

Regarding `CC(C)c1ccc(S(=O)(=O)N2C(=O)NC(=O)C23CCCc2ccccc23)cc1` (stereo not given), the Activity entry is listed as “Non-Toxic” in the series with MIN6 [1], 230% with MIN6 [3], 192% with MIN6 [4] and “Non-Toxic” with MIN6 [25]. The viability at 24 h, 400 µM in series [2] was 81%. Also, the IC50 in series [9] was determined as 0.56 µM; in series [10] it was 68.2 µM; in [13] it was 0.85 µM; in series [15], 0.72 µM; in series [17], 0.83 µM. Further, the Ratio IC50 in series [11] came out at 73.7. The inhibition entry was “Dose-dependent effect” in [12]; “Dose-dependent effect” in [14]; “Dose-dependent effect” in [16]; 72.7% in series [18]; 75.2% in series [19]; 85.3% in [20]. The inhibition entry in [27], in series [28], in [29] and in series [30] was “Active” throughout. In [21], the cytotoxicity at 48 h, 25 µM was found to be 14.2%. In series [22], the cytotoxicity at 48 h, 50 µM amounted to 16.2%. Further, in series [23], the cytotoxicity at 48 h, 100 µM is 16.1%. The cytotoxicity at 48 h, 200 µM in [24] is 22.3%. Also, the inhibition in vivo at 150 mg/kg in the series with Mus musculus turned out to be 50.3%.

With `CC(C)c1ccc(S(=O)(=O)N2C(=O)NC3(CCCc4ccccc43)C2=O)cc1` (stereo not given), the Activity entry with MIN6 [1] is given as “Non-Toxic”; in the series with MIN6 [3] it was 295%; in the series with MIN6 [4], 84%; in the series with MIN6 [25] it was “Non-Toxic”. Further, the viability at 24 h, 400 µM in series [2] amounted to 81%. The outcome in the series with MIN6 [5], in the series with MIN6 [6] and with MIN6 [7] was inactive. In addition, the IC50 worked out at 8.02 µM in [9]; 32.5 µM in series [10]; 10.3 µM in series [13]; 13 µM in series [15]; 10.7 µM in series [17]. In addition, the Ratio IC50 in series [11] came to 4.05. For the same molecule, the inhibition result in [12] is “Dose-dependent effect”; in series [14] it was “Dose-dependent effect”; in series [16], “Dose-dependent effect”; in [18] it was 82.3%; in series [19], 84.2%; in series [20], 92.3%. In addition, the cytotoxicity at 48 h, 25 µM in series [21] was 10.1%. Moreover, the cytotoxicity at 48 h, 50 µM in series [22] amounted to 12.5%. Further, the cytotoxicity at 48 h, 100 µM in series [23] turned out to be 12.6%. For the same molecule, in series [24], the cytotoxicity at 48 h, 200 µM worked out at 18.5%.

The values are drawn from ChEMBL document CHEMBL4387705, “Synthesis of new arylsulfonylspiroimidazolidine-2',4'-diones and study of their effect on stimulation of insulin release from MIN6 cell line, inhibition of human aldose reductase, sorbitol accumulations in various tissues and oxidative stress” (Eur J Med Chem, 2019).
